From patent publication US11799117B2, “Flow batteries incorporating a nitroxide compound within an aqueous electrolyte solution” (LOCKHEED MARTIN ENERGY, LLC, priority 2016, dated 2023)

What was measured:
Format in all cases: physicochemical
[1] = Reduction potential versus a saturated calomel electrode
Text: (§1) First, it has a reduction potential of approximately 0.6 V versus a saturated calomel electrode, which is desirably higher than that of iron hexacyanide coordination compounds (increase of 0.25 V).

[2] = Electrochemical kinetics by cyclic voltammetry; conditions: also in alkaline aqueous electrolyte solutions; substantially reversible = anodic/cathodic peak difference less than about 0.3 V
Text: The high positive half-cell reduction potentials can provide significant advantages when incorporated in flow batteries, particularly in comparison to the commonly used iron hexacyanide coordination compounds. The high positive reduction potential can allow improved open circuit potential, voltage efficiency and current efficiency values to be realized. In addition, the improved solubility of many nitroxide compounds compared to iron hexacyanide coordination compounds allows improved energy density values to be realized.
The nitroxide compound defined by Structure 12 has the chemical name [2,2,6,6-tetramethyl-4-(sulfooxy)piperidin-1-yl]oxidanyl (also referred to herein as TEMPOSO). Without being bound by any theory or mechanism, it is believed that the sulfate (sulfooxy) group can stabilize the nitroxide group when the six-membered ring is in its “boat”, configuration. […] Under alkaline aqueous solutions, the deprotonated anionic form of Structure 12 can be stabilized after oxidation of the radical through lone pair donation from the sulfooxy group to the resulting nitrogen-centered cation.
as §1

[3] = Conductivity of aqueous solution; conditions: 1 M aqueous solution, pH 11, absence of other electrolytes
Text: as §1

[4] = Aqueous solubility
Text: as §1

Substance: [2,2,6,6-tetramethyl-4-(sulfooxy)piperidin-1-yl]oxidanyl [TEMPOSO]
- increase of reduction potential over iron hexacyanide coordination compounds [1]: 0.25 V
- reduction potential [1]: approximately 0.6 V
- electrochemical kinetics [2]: substantially reversible
- conductivity [3]: about 50 mS/cm
- aqueous solubility [4]: ≥ 1800 mM
